According to the CheMixHub viscosity set:
± gives the uncertainty stated by the source.

Experiment: xn = mol fraction of the nth substance listed

COCCOCCOCCOC + O
viscosity [mPa·s], 101.33 kPa
Conditions	298 K	298.15 K
x1 = 0.0057	–	1.058 ± 0.008
x1 = 0.0077	1.15 ± 0.03	–
x1 = 0.0124	–	1.278 ± 0.008
x1 = 0.0143	1.38 ± 0.036	–
x1 = 0.0176	–	1.444 ± 0.009
x1 = 0.0247	–	1.737 ± 0.011
x1 = 0.0255	1.83 ± 0.048	–
x1 = 0.0326	–	2.063 ± 0.013
x1 = 0.0455	–	2.613 ± 0.015
x1 = 0.0484	2.79 ± 0.073	–
x1 = 0.0673	–	3.462 ± 0.02
x1 = 0.0796	3.89 ± 0.1	–
x1 = 0.0814	3.95 ± 0.1	–
x1 = 0.0826	–	4.032 ± 0.022
x1 = 0.0934	4.25 ± 0.11	–
x1 = 0.1017	–	4.344 ± 0.024
x1 = 0.1022	4.4 ± 0.12	–
x1 = 0.1092	4.49 ± 0.12	–
x1 = 0.1166	4.6 ± 0.12	–
x1 = 0.1215	–	4.581 ± 0.025
x1 = 0.1407	4.68 ± 0.12	–
x1 = 0.1423	–	4.678 ± 0.026
x1 = 0.1607	–	4.625 ± 0.026
x1 = 0.1731	4.63 ± 0.12	–
x1 = 0.1907	–	4.512 ± 0.025
x1 = 0.2117	4.39 ± 0.11	–
x1 = 0.2288	–	4.179 ± 0.023
x1 = 0.2745	3.87 ± 0.1	3.819 ± 0.021
x1 = 0.3074	–	3.588 ± 0.02
x1 = 0.3483	3.29 ± 0.086	–
x1 = 0.3653	–	3.236 ± 0.018
x1 = 0.4097	–	3.035 ± 0.017
x1 = 0.4311	2.9 ± 0.076	–
x1 = 0.4857	–	2.706 ± 0.016
x1 = 0.5899	2.41 ± 0.063	–
x1 = 0.593	–	2.398 ± 0.014
x1 = 0.6382	–	2.311 ± 0.014
x1 = 0.702	–	2.269 ± 0.014
x1 = 0.745	2.16 ± 0.056	–
x1 = 0.7475	–	2.22 ± 0.013
x1 = 0.7813	–	2.166 ± 0.013
x1 = 0.7839	2.1 ± 0.055	–
x1 = 0.8141	–	2.121 ± 0.013
x1 = 0.8687	2.04 ± 0.053	–
x1 = 0.8937	–	2.068 ± 0.013
x1 = 0.9665	–	2.035 ± 0.013

Nc1ccccc1 + CC(C)(C)O
303 K, 101.33 kPa
Conditions	viscosity [mPa·s]
x1 = 0.1	2.851 ± 0.3
x1 = 0.2	2.363 ± 0.24
x1 = 0.3	2.307 ± 0.24
x1 = 0.4	2.218 ± 0.23
x1 = 0.5	2.257 ± 0.23
x1 = 0.6	2.305 ± 0.24
x1 = 0.7	2.407 ± 0.25
x1 = 0.8	2.524 ± 0.26
x1 = 0.9	2.766 ± 0.29

COCCOCCOCCOC + ClC(Cl)(Cl)Cl
298.15 K, 101 kPa
Conditions	viscosity [mPa·s]
x1 = 0.0041	0.912 ± 0.013
x1 = 0.0202	0.952 ± 0.013
x1 = 0.0485	1 ± 0.014
x1 = 0.0921	1.08 ± 0.015
x1 = 0.1704	1.198 ± 0.016
x1 = 0.2242	1.288 ± 0.017
x1 = 0.2579	1.333 ± 0.017
x1 = 0.2736	1.364 ± 0.018
x1 = 0.3237	1.437 ± 0.018
x1 = 0.3887	1.52 ± 0.019
x1 = 0.4494	1.59 ± 0.02
x1 = 0.5	1.646 ± 0.021
x1 = 0.5522	1.696 ± 0.022
x1 = 0.6149	1.75 ± 0.022
x1 = 0.6542	1.79 ± 0.023
x1 = 0.7187	1.826 ± 0.023
x1 = 0.7623	1.846 ± 0.023
x1 = 0.8533	1.891 ± 0.024
x1 = 0.8992	1.913 ± 0.024
x1 = 0.9312	1.929 ± 0.024

CCNCC + O
297.65 K, 101.33 kPa
Conditions	viscosity [mPa·s]
x1 = 0.0033	0.928 ± 0.011
x1 = 0.0087	1.051 ± 0.011
x1 = 0.0165	1.24 ± 0.013
x1 = 0.023	1.405 ± 0.014
x1 = 0.0271	1.508 ± 0.014
x1 = 0.0342	1.691 ± 0.016
x1 = 0.0458	1.985 ± 0.017
x1 = 0.0592	2.305 ± 0.02
x1 = 0.0733	2.604 ± 0.022
x1 = 0.0885	2.863 ± 0.023
x1 = 0.104	3.037 ± 0.025
x1 = 0.1203	3.096 ± 0.025
x1 = 0.1385	3.121 ± 0.025

CCCCOC(=O)c1ccccc1 + CCCCCCCCCCCC
101 kPa
Conditions	viscosity [mPa·s]
298.15 K, x2 = 0.0369	2.578 ± 0.081
298.15 K, x2 = 0.0748	2.463 ± 0.078
298.15 K, x2 = 0.1143	2.347 ± 0.074
298.15 K, x2 = 0.1505	2.251 ± 0.071
298.15 K, x2 = 0.1939	2.149 ± 0.068
298.15 K, x2 = 0.2329	2.064 ± 0.065
298.15 K, x2 = 0.2775	1.977 ± 0.063
298.15 K, x2 = 0.3263	1.893 ± 0.06
298.15 K, x2 = 0.3672	1.834 ± 0.058
298.15 K, x2 = 0.4144	1.759 ± 0.056
298.15 K, x2 = 0.4576	1.702 ± 0.054
298.15 K, x2 = 0.5085	1.649 ± 0.053
298.15 K, x2 = 0.5525	1.594 ± 0.051
298.15 K, x2 = 0.6026	1.549 ± 0.05
298.15 K, x2 = 0.6499	1.506 ± 0.049
298.15 K, x2 = 0.7176	1.457 ± 0.047
298.15 K, x2 = 0.7662	1.428 ± 0.046
298.15 K, x2 = 0.8184	1.399 ± 0.045
298.15 K, x2 = 0.8852	1.372 ± 0.045
308.15 K, x2 = 0.0565	2.041 ± 0.064
308.15 K, x2 = 0.0869	1.968 ± 0.062
308.15 K, x2 = 0.1399	1.857 ± 0.059
308.15 K, x2 = 0.1662	1.807 ± 0.057
308.15 K, x2 = 0.2145	1.722 ± 0.055
308.15 K, x2 = 0.2546	1.662 ± 0.053
308.15 K, x2 = 0.3019	1.596 ± 0.051
308.15 K, x2 = 0.3408	1.548 ± 0.049
308.15 K, x2 = 0.3915	1.49 ± 0.048
308.15 K, x2 = 0.4297	1.451 ± 0.046
308.15 K, x2 = 0.4845	1.4 ± 0.045
308.15 K, x2 = 0.5231	1.367 ± 0.044
308.15 K, x2 = 0.5719	1.328 ± 0.043
308.15 K, x2 = 0.6276	1.287 ± 0.041
308.15 K, x2 = 0.68	1.256 ± 0.041
308.15 K, x2 = 0.7278	1.229 ± 0.04
308.15 K, x2 = 0.7842	1.202 ± 0.039
308.15 K, x2 = 0.8501	1.176 ± 0.038
308.15 K, x2 = 0.9392	1.151 ± 0.038
318.15 K, x2 = 0.0245	1.764 ± 0.056
318.15 K, x2 = 0.0618	1.688 ± 0.053
318.15 K, x2 = 0.101	1.612 ± 0.051
318.15 K, x2 = 0.1422	1.543 ± 0.049
318.15 K, x2 = 0.181	1.487 ± 0.047
318.15 K, x2 = 0.2247	1.427 ± 0.045
318.15 K, x2 = 0.2652	1.376 ± 0.044
318.15 K, x2 = 0.3117	1.325 ± 0.042
318.15 K, x2 = 0.355	1.282 ± 0.041
318.15 K, x2 = 0.4033	1.238 ± 0.04
318.15 K, x2 = 0.4479	1.202 ± 0.038
318.15 K, x2 = 0.5006	1.163 ± 0.037
318.15 K, x2 = 0.5557	1.127 ± 0.036
318.15 K, x2 = 0.604	1.099 ± 0.035
318.15 K, x2 = 0.6185	1.091 ± 0.035
318.15 K, x2 = 0.7124	1.045 ± 0.034
318.15 K, x2 = 0.7679	1.024 ± 0.033
318.15 K, x2 = 0.8278	1.006 ± 0.033
318.15 K, x2 = 0.9612	0.974 ± 0.032

C[NH+](CCO)CCO.O=C[O-] + CCCO
viscosity [mPa·s], 101 kPa
Conditions	293.15 K	303.15 K	313.15 K	323.15 K
x1 = 0.0561	29.65 ± 0.61	17.05 ± 0.35	8.082 ± 0.17	5.559 ± 0.12
x1 = 0.1033	51.95 ± 1.1	25.07 ± 0.52	13.55 ± 0.28	9.307 ± 0.19
x1 = 0.1976	99.81 ± 2.2	47.76 ± 0.99	25.74 ± 0.53	17.6 ± 0.36
x1 = 0.3071	159.4 ± 4	78.44 ± 1.7	41.48 ± 0.86	28.28 ± 0.58
x1 = 0.4049	216.8 ± 5.9	106.9 ± 2.4	57.05 ± 1.2	38.83 ± 0.8
x1 = 0.5231	293.9 ± 8.8	143.5 ± 3.5	78.48 ± 1.7	53.2 ± 1.1
x1 = 0.6246	369.5 ± 12	179.8 ± 4.7	99.71 ± 2.2	67.21 ± 1.4
x1 = 0.7259	455.1 ± 16	222.6 ± 6.2	123.6 ± 2.9	82.66 ± 1.8
x1 = 0.8079	531.2 ± 19	261.8 ± 7.6	144.3 ± 3.5	95.86 ± 2.1
x1 = 0.9055	627 ± 23	310.4 ± 9.5	169 ± 4.3	111.4 ± 2.6
x1 = 0.9558	671.4 ± 26	331.9 ± 10	180.4 ± 4.7	118.7 ± 2.8

CC(C)(C)O + CCCCCCCCCC
Conditions	viscosity [mPa·s]
323.15 K, 101 kPa, x1 = 0.9499	1.155 ± 0.0094

CCCC[n+]1ccn(C)c1.[Cl][Al-]([Cl])([Cl])[Cl] + [Al+3].[Cl-].[Cl-].[Cl-]
viscosity [mPa·s], 101 kPa
Conditions	293.15 K	298.15 K	303.15 K	308.15 K	313.15 K	318.15 K	323.15 K
x2 = 0.46	30.8 ± 1.3	27 ± 1.2	24.1 ± 1	21 ± 0.9	18.4 ± 0.8	16.4 ± 0.7	14.8 ± 0.6
x2 = 0.57	31.4 ± 1.4	27.3 ± 1.2	23.7 ± 1	20.8 ± 0.9	18.3 ± 0.8	16.4 ± 0.7	14.7 ± 0.6

CCCC(=O)OC + c1ccccc1
viscosity [mPa·s], 101 kPa
Conditions	x2 = 0.1316	x2 = 0.1994	x2 = 0.2999	x2 = 0.3974	x2 = 0.5001	x2 = 0.6023	x2 = 0.7044	x2 = 0.7999	x2 = 0.8939
298.15 K	0.536 ± 0.006	0.534 ± 0.005	0.535 ± 0.005	0.536 ± 0.005	0.54 ± 0.005	0.544 ± 0.005	0.551 ± 0.005	0.561 ± 0.005	0.575 ± 0.005
313.15 K	0.451 ± 0.005	0.45 ± 0.005	0.45 ± 0.005	0.451 ± 0.005	0.453 ± 0.005	0.456 ± 0.005	0.46 ± 0.005	0.466 ± 0.005	0.476 ± 0.005
